Values of other authors as cited in patent US20090186834A1, “DIPHENYLHETEROCYCLE CHOLESTEROL ABSORPTION INHIBITORS” (MICROBIA, INC., priority 2005, published 2009).

Experiments:
[1] = system: fat-SOluble vitamin absorption; conditions: in humans
[2] = system: absorption of taurocholic acid; conditions: in vivo

O=C1[C@H](CC[C@H](O)c2ccc(F)cc2)[C@@H](c2ccc(O)cc2)N1c1ccc(F)cc1 [ezetimibe, (3R,4S)-1-(4-fluorophenyl)-3-[(3S)-3-(4-fluorophenyl)-3-hydroxypropyl]-4-(4-hydroxyphenyl)azetidin-2-one]
effect on fat-SOluble vitamin absorption [1]: does not appear to affect | inhibition of the absorption of taurocholic acid [2]: does not inhibit
